Laboratory results from article PMC11233931, “Remodeling tumor‐associated macrophage for anti‐cancer effects by rational design of irreversible inhibition of mitogen‐activated protein kinase‐activated protein kinase 2” (MedComm, 2024).
Like-named read-outs stand apart in the source and are kept apart here.

Legend:
Assay in all cases: Eurofins kinase selectivity profile against 380 other human recombinant kinases (Table S2)
Format in all cases: biochemical
[1] = target: T1, 380 human recombinant protein kinases (Homo sapiens, UniProt O15075); conditions: DCAMKL1(h), read-out: Inhibition rate
T1 construct: purchased Eurofins (Celle Lévescault)
T1 sequence (O15075 whole entry): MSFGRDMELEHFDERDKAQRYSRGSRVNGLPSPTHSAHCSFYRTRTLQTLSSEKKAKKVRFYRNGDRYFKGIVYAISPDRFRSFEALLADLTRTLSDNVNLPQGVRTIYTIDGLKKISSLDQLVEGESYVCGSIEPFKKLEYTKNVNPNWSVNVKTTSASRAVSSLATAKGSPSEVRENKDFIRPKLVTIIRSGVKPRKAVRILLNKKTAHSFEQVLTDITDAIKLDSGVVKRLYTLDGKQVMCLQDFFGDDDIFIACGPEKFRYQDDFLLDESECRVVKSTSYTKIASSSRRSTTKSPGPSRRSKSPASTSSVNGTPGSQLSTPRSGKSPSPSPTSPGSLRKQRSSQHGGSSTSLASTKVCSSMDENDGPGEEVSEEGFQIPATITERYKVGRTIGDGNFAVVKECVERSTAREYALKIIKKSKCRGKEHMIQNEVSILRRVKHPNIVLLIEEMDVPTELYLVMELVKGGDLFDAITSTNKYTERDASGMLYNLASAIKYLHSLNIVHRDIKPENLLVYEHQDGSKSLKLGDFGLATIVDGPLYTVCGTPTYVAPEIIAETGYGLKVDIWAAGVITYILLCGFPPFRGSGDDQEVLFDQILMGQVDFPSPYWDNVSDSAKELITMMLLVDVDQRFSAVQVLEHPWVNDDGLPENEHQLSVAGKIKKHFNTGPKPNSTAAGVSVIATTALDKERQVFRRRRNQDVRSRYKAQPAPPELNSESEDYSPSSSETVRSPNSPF
Procedure, shortened: (§1)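 To gauge specificity for MK2, the compound is profiled externally at various concentrations on recombinant human kinases, 380 in total.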

[2] = target: T2, 380 human recombinant protein kinases (Homo sapiens, UniProt P24941); conditions: read-out: Inhibition rate; for inhibition at 0.01 µM: 10 nM; for inhibition at 0.1 µM: 100 nM; for inhibition at 1 µM: 1000 nM
T2 construct: purchased Eurofins (Celle Lévescault)
Procedure, shortened: as §1

[3] = target: T3, 380 human recombinant protein kinases (Homo sapiens, UniProt P51813); conditions: Bmx(h), read-out: Inhibition rate
T3 construct: purchased Eurofins (Celle Lévescault)
T3 sequence (P51813 1-675): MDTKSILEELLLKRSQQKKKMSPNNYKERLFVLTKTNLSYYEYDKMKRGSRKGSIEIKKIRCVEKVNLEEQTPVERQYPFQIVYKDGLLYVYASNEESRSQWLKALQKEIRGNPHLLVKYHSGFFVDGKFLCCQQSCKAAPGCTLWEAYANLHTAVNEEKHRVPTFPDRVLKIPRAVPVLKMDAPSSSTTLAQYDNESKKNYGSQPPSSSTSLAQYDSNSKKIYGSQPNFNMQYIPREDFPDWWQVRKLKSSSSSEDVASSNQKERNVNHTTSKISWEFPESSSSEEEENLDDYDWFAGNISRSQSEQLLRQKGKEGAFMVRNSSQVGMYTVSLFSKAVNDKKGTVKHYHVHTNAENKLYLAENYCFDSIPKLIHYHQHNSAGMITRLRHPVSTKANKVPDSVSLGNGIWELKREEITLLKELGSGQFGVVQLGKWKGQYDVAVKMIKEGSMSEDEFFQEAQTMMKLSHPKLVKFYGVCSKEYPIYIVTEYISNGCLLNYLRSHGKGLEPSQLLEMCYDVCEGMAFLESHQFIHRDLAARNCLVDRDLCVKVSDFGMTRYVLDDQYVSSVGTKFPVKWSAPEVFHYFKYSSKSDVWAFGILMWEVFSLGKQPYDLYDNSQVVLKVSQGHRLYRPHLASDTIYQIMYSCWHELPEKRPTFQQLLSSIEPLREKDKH
Procedure, shortened: as §1

[4] = target: T4, 380 human recombinant protein kinases (Homo sapiens, UniProt Q96SB4); conditions: SRPK1(h), read-out: Inhibition rate (%)
T4 construct: purchased Eurofins (Celle Lévescault)
T4 sequence (Q96SB4 whole entry): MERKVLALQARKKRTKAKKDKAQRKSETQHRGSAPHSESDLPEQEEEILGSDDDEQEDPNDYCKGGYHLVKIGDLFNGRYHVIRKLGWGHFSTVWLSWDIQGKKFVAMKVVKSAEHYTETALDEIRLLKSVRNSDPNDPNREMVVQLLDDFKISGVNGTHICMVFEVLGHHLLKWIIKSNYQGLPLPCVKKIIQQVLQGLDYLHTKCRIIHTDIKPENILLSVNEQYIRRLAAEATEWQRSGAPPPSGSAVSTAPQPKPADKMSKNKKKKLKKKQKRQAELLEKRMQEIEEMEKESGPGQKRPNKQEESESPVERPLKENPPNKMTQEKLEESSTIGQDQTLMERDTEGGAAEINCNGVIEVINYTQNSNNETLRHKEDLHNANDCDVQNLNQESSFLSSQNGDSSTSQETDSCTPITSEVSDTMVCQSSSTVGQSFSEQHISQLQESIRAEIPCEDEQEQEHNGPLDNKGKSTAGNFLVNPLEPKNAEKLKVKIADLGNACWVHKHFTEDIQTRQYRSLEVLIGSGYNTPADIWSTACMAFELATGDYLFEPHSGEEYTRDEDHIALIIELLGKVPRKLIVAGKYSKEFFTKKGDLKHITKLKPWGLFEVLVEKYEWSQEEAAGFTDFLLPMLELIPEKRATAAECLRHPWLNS
Procedure, shortened: as §1

[5] = target: T5, 380 human recombinant protein kinases (Homo sapiens, UniProt Q9H2G2); conditions: SLK(h), read-out: Inhibition rate (%)
T5 construct: purchased Eurofins (Celle Lévescault)
T5 sequence (Q9H2G2 whole entry): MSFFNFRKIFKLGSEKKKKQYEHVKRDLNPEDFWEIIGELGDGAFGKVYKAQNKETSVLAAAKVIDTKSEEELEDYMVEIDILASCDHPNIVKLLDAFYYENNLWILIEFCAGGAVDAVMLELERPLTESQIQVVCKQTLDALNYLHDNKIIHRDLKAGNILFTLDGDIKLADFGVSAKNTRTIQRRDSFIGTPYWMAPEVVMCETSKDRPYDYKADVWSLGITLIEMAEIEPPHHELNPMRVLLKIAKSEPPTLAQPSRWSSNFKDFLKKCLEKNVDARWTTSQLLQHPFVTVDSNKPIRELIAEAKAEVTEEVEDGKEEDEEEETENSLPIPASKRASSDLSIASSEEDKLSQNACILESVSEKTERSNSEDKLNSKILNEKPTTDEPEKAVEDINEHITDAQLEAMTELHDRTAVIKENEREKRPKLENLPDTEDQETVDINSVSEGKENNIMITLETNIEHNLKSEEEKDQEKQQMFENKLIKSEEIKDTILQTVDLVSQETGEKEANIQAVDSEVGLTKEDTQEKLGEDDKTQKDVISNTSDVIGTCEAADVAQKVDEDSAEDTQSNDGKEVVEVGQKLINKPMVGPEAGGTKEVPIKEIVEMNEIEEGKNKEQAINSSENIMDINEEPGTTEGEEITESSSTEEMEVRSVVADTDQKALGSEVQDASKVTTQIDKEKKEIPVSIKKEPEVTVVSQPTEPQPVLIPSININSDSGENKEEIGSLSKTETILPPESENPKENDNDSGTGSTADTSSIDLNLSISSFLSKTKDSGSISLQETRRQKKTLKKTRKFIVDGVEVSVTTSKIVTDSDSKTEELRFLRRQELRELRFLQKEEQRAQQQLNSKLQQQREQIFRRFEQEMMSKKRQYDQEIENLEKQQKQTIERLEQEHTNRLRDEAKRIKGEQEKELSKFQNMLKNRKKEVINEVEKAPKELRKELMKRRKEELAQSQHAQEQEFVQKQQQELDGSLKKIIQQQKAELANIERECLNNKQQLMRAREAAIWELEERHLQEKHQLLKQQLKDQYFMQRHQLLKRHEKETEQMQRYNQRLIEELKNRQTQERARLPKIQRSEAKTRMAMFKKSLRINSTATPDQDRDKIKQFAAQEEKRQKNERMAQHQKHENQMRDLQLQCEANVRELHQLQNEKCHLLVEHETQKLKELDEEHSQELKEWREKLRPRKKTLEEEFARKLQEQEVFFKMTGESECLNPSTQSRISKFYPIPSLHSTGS
Procedure, shortened: as §1

[6] = target: T6, 380 human recombinant protein kinases (Homo sapiens, UniProt Q9UPZ9); conditions: ICK(h), read-out: Inhibition rate
T6 construct: purchased Eurofins (Celle Lévescault)
T6 sequence (Q9UPZ9 1-632): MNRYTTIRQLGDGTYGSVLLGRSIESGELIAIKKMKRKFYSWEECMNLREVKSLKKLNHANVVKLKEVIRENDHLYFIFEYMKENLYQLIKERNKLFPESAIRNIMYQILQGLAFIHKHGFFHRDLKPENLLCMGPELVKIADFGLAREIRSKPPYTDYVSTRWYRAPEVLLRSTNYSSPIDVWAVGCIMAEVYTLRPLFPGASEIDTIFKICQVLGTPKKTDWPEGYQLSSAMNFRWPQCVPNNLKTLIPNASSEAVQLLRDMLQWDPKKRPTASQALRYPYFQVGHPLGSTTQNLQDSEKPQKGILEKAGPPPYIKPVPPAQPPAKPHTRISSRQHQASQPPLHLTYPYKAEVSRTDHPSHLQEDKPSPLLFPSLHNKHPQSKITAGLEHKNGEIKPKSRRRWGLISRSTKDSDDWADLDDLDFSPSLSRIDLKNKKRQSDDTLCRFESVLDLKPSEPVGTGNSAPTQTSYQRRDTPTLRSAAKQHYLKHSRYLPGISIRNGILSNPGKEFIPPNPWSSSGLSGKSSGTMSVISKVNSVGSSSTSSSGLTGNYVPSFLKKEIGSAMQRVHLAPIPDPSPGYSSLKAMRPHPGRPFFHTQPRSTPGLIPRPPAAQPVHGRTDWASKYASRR
Procedure, shortened: as §1

C=CC(=O)Nc1cc(-c2cc(-c3cc4c([nH]3)CCNC4=O)ccn2)ccc1OC(F)(F)F [compound 11]
inhibition at 0.01 µM ([1]; 10 nM): 3% | inhibition at 0.1 µM ([1]; 100 nM): -1% | inhibition at 1 µM ([1]; 1000 nM): -1% | inhibition at 0.01 µM ([2]; CDK2/cyclinA(h)): -5% | inhibition at 0.1 µM ([2]; CDK2/cyclinA(h)): 0% | inhibition at 1 µM ([2]; CDK2/cyclinA(h)): 7% | inhibition at 0.01 µM ([2]; CDK2/cyclinE(h)): -3% | inhibition at 0.1 µM ([2]; CDK2/cyclinE(h)): 1% | inhibition at 1 µM ([2]; CDK2/cyclinE(h)): -1% | inhibition at 0.01 µM ([3]; 10 nM): 1% | inhibition at 0.1 µM ([3]; 100 nM): -4% | inhibition at 1 µM ([3]; 1000 nM): -5% | inhibition at 0.01 µM ([4]; 10 nM): 6% | inhibition at 0.1 µM ([4]; 100 nM): 13% | inhibition at 1 µM ([4]; 1000 nM): 22% | inhibition at 0.01 µM ([5]; 10 nM): 1% | inhibition at 0.1 µM ([5]; 100 nM): 4% | inhibition at 1 µM ([5]; 1000 nM): 4% | inhibition at 0.01 µM ([6]; 10 nM): 3% | inhibition at 0.1 µM ([6]; 100 nM): 18% | inhibition at 1 µM ([6]; 1000 nM): 8%
